Measured values as given in patent US8802664B2 (Bioproject, priority 2010, dated 2014).

Each molecule was assayed against T1, human H4 receptor (Homo sapiens, UniProt Q9H3N8) (assay: [3H]Histamine binding on membranes of CHO cells stably expressing human H4 receptor).
T1 construct: expressed in transfected cells
Experimental: CHO cells stably expressing human H4 receptor were grown until sub-confluence and centrifuged at 300 g 15 minutes at 4° C. Pellets were resuspended in buffer I Tris-HCl 50 mM, MgCl2 10 mM, NaCl 140 mM, pH=7.4 supplemented by a 1/50 dilution of a mix of protease inhibitors. The obtained suspension is stirred gently and submitted to a […] exerted through a syringe. The cell lysate is then centrifuged at 300 g 15 minutes at 4° C. in order to eliminate nucleus and cell scraps. The obtained supernatant was then centrifuged at 48000 g for 30 minutes at 4° C. The final pellet is resuspended in buffer I with a potter homogenizer. Aliquots were frozen in liquid nitrogen and stored until use at −80° C. Protein content is measured by the Bradford method.
Defreezed membranes were diluted at a final concentration of 20 μg/180 μL/well in a binding buffer containing 50 mM Tris/HCl, 0.5 mM EDTA, pH=7.4 and distributed in 96 well polystyrene microplate. [^3H] […] Non specific binding was estimated in the presence of 10 μM BP1.2404 (JNJ 7777120). The reaction was terminated by filtration through GF/B filters pre-soaked 2 hours at 4° C. in […]. Filters were rinsed 3 times with 250 μl of ice cold incubation binding buffer.
The filter-bound radioactivity was measured in a liquid scintillation counter Microbeta TRILUX® with 50 μl of scintillation fluid.
The hH4 binding investigated by use of [^3H]

T1 sequence (Q9H3N8 whole entry): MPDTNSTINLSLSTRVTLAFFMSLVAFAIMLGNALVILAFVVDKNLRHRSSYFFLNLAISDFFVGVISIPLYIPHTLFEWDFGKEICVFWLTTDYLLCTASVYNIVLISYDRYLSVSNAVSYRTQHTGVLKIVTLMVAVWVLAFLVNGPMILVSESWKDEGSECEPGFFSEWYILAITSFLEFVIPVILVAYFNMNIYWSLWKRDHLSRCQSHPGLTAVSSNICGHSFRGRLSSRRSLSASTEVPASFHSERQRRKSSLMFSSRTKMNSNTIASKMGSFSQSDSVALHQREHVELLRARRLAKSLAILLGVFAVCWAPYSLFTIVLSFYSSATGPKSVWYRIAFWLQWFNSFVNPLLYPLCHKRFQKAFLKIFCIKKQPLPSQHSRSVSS

SMILES	Ki or IC50 activity class
CN1CCC(OC(c2cccc(OC3CCNC3)c2)c2nc3ccccc3s2)CC1 (centres unmarked) [Example 383, 2-{(1-methylpiperidin-4-yloxy)[3-(pyrrolidin-3-yloxy)phenyl]methyl}benzothiazole]	< 300 nM
CN1CCC(OC(c2cccc(Br)c2)c2nc3ccccc3[nH]2)CC1 (centres unmarked) [Example 78, 2-[(3-bromophenyl)(1-methylpiperidin-4-yloxy)methyl]-1H-benzimidazole]	< 300 nM
Cc1ccc(C(NC2CCN(C)CC2)c2nc3ccccc3s2)cc1 (centres unmarked) [Example 36, (benzothiazol-2-yl-p-tolylmethyl)(1-methylpiperidin-4-yl)amine]	< 300 nM
CN1CCC(OC(c2cccc(C#CCNC(=N)N)c2)c2nc3ccccc3s2)CC1 (centres unmarked) [Example 373, N-(3-{3-[benzothiazol-2-yl(1-methylpiperidin-4-yloxy)methyl]phenyl}prop-2-ynyl)guanidine]	< 30 nM
CN1CCC(OC(c2cccc(C=CCCCO)c2)c2nc3ccccc3s2)CC1 (centres unmarked) [Example 384, 5-{3-[benzothiazol-2-yl(1-methylpiperidin-4-yloxy)methyl]phenyl}pent-4-en-1-ol]	< 300 nM
CN1CCC(OC(c2cccc(OCCCCN3CCCCC3)c2)c2nc3ccccc3[nH]2)CC1 (centres unmarked) [Example 333, 2-{(1-methylpiperidin-4-yloxy)[3-(4-piperidin-1-yl-butoxy)phenyl]methyl}-1H-benzimidazole]	< 300 nM
CN1CCC(NC(c2cccc(OCc3cccc(F)c3)c2)c2nc3ccccc3[nH]2)CC1 (centres unmarked) [Example 105, {(1H-benzimidazol-2-yl)[3-(3-fluorobenzyloxy)phenyl]methyl}(1-methylpiperidin-4-yl)amine]	< 30 nM
CN1CCC(OC(c2cccc(SCCCO)c2)c2nc3ccccc3s2)CC1 (centres unmarked) [Example 254, 3-{3-[benzothiazol-2-yl(1-methylpiperidin-4-yloxy)methyl]phenylsulfanyl}propan-1-ol]	< 30 nM
CN1CCC(OC(c2cccc(OCc3ccccc3)c2)c2nc3ccccc3s2)CC1 (centres unmarked) [Example 45, 2-[(3-benzyloxyphenyl)(1-methylpiperidin-4-yloxy)methyl]benzothiazole]	< 30 nM
C=Cc1cccc(C(OC2CCN(C)CC2)c2nc3ccccc3[nH]2)c1 (centres unmarked) [Example 245, 2-[(1-methylpiperidin-4-yloxy)(3-vinyl-phenyl)methyl]-1H-benzimidazole]	< 300 nM
CCOc1cccc(C(OC2CCN(C)CC2)c2nc3ccccc3s2)c1 (centres unmarked) [Example 47, 2-[(3-ethoxyphenyl)(1-methylpiperidin-4-yloxy)methyl]benzothiazole]	< 30 nM
CC(=O)c1cccc(-c2cccc(C(OC3CCN(C)CC3)c3nc4ccccc4[nH]3)c2)c1 (centres unmarked) [Example 110, 1-{3′-[(1H-benzimidazol-2-yl)(1-methylpiperidin-4-yloxy)methyl]biphenyl-3-yl}ethanone]	< 300 nM
CN1CCC(OC(c2cccc(SCCCCN)c2)c2nc3cc(F)ccc3[nH]2)CC1 (centres unmarked) [Example 440, 4-{3-[(5-fluoro-1H-benzimidazol-2-yl)(1-methylpiperidin-4-yloxy)methyl]phenylsulfanyl}butylamine]	< 30 nM
CN1CCC(OC(c2cccc(N3CCC(CO)C3)c2)c2nc3ccccc3s2)CC1 (centres unmarked) [Example 404, (1-{3-[benzothiazol-2-yl(1-methylpiperidin-4-yloxy)methyl]phenyl}pyrrolidin-3-yl)methanol]	< 300 nM
Cc1ccc(C(OC2CCN(C)CC2)c2nc3ccccc3o2)c(F)c1 (centres unmarked) [Example 545]	< 300 nM
Cc1ccc(C(OC2CCN(C)CC2)c2nc3ccccc3[nH]2)c(F)c1 (single isomer, unassigned) [Example 533, 2-[(2-fluoro-4-methylphenyl)(1-methylpiperidin-4-yloxy)methyl]-1H-benzimidazole]	< 30 nM

SMILES	Ki or IC50 activity class
CN1CCC(OC(c2cccc(OCCC(F)(F)F)c2)c2nc3ccccc3s2)CC1 (centres unmarked) [Example 178, 2-{(1-methylpiperidin-4-yloxy)[3-(3,3,3-trifluoro-propoxy)phenyl]methyl}benzothiazole]	< 300 nM
CN1CCC(OC(c2cccc(N3CCCC3CN)c2)c2nc3ccccc3s2)CC1 (centres unmarked) [Example 482]	< 30 nM
CCSc1cccc(C(OC2CCN(C)CC2)c2nc3ccccc3[nH]2)c1 (centres unmarked) [Example 153, 2-[(3-ethylsulfanylphenyl)(1-methylpiperidin-4-yloxy)methyl]-1H-benzimidazole]	< 30 nM
CN1CCC(OC(c2cccc(C=CCNC(=N)N)c2)c2nc3ccccc3[nH]2)CC1 (centres unmarked) [Example 499]	< 30 nM
CN1CCC(NC(c2cccc(OCC3CCCCC3)c2)c2nc3ccccc3s2)CC1 (centres unmarked) [Example 93, [benzothiazol-2-yl(3-cyclohexylmethoxyphenyl)methyl](1-methylpiperidin-4-yl)amine]	< 300 nM
CN1CCC(OC(c2nc3ccccc3o2)c2cc(OC(F)(F)F)ccc2F)CC1 (centres unmarked) [Example 525, 2-[(2-fluoro-5-trifluoromethoxyphenyl)(1-methylpiperidin-4-yloxy)methyl]benzoxazole]	< 300 nM
CN1CCC(OC(c2ccc(Cl)cc2)c2nc3ccccc3s2)CC1 (centres unmarked) [Example 4, 2-[(4-chlorophenyl)(1-methylpiperidin-4-yloxy)methyl]benzothiazole]	< 1000 nM
CCn1c(C(OC2CCN(C)CC2)c2cccc(C#CCCCCN)c2)nc2ccccc21 (centres unmarked) [Example 503]	< 300 nM
CN1CCC(OC(c2cccc(OCc3cccc(F)c3)c2)c2nc3ccccc3s2)CC1 (centres unmarked) [Example 171, 2-[[3-(3-fluorobenzyloxy)phenyl](1-methylpiperidin-4-yloxy)methyl]benzothiazole]	< 30 nM
CC(C)Oc1cccc(C(OC2CCN(C)CC2)c2nc3ccccc3s2)c1 (centres unmarked) [Example 55, 2-[(3-isopropoxyphenyl)(1-methylpiperidin-4-yloxy)methyl]benzothiazole]	< 30 nM
CC(=O)COCc1cccc(C(OC2CCN(C)CC2)c2nc3ccccc3s2)c1 (centres unmarked) [Example 270, 1-{3-[benzothiazol-2-yl(1-methylpiperidin-4-yloxy)methyl]benzyloxy}propan-2-one]	< 1000 nM
CN1CCC(OC(c2cccc(C#CCCCO)c2)c2nc3ccccc3s2)CC1 (centres unmarked) [Example 237, 5-{3-[benzothiazol-2-yl(1-methylpiperidin-4-yloxy)methyl]phenyl}pent-4-yn-1-ol]	< 300 nM
CCCCOc1cccc(C(NC2CCN(C)CC2)c2nc3ccccc3[nH]2)c1 (centres unmarked) [Example 69, [(1H-benzimidazol-2-yl)(3-butoxyphenyl)methyl](1-methylpiperidin-4-yl)amine]	< 30 nM
CN1CCC(OC(c2ccc(F)cc2)c2nc3ccccc3s2)CC1 (centres unmarked) [Example 3, 2-[(4-fluorophenyl)(1-methylpiperidin-4-yloxy)methyl]benzothiazole]	< 300 nM
CN1CCC(OC(c2cccc(OCc3cccc(C(F)(F)F)c3)c2)c2nc3ccccc3s2)CC1 (centres unmarked) [Example 187, 2-{(1-methylpiperidin-4-yloxy)[3-(3-trifluoromethyl-benzyloxy)phenyl]methyl}benzothiazole]	< 30 nM
Cc1cc(F)c(C(OC2CCN(C)CC2)c2nc3ccccc3s2)c(F)c1 (centres unmarked) [Example 531]	< 30 nM
